According to ChEMBL document CHEMBL1147448, “New substituted triaza-benzo[cd]azulen-9-ones as promising phosphodiesterase-4 inhibitors” (Bioorg Med Chem Lett, 2004):

Tests used:
Phosphodiesterase 1 = Phosphodiesterase 1 (Homo sapiens, UniProt P54750+Q01064+Q14123); test: Inhibition of Phosphodiesterase 1; type: protein assay, Cavia porcellus
Phosphodiesterase 4 = Phosphodiesterase 4 (Homo sapiens, UniProt P27815+Q08499+Q07343+Q08493); test: Inhibition of phosphodiesterase 4; type: protein assay
Phosphodiesterase 3 = Phosphodiesterase 3 (Homo sapiens, UniProt Q14432+Q13370); test: Inhibition of phosphodiesterase 3; type: protein assay, Canis lupus familiaris

Row | Compound | IC50 (Phosphodiesterase 1) [µM] | IC50 (Phosphodiesterase 4) [µM] | IC50 (Phosphodiesterase 3) [µM]
1 | COc1cc2c3c(c1)C(c1ccccc1)=NCC(=O)N3CC2 | 52 | 40 | 77
2 | Nc1cc2c3c(c1)C(c1ccccc1)=N[C@@H](NC(=O)c1ccncc1)C(=O)N3CC2 |  | 0.27 | 
3 | COc1cc2c3c(n1)C(c1ccccc1)=NCC(=O)N3CC2 | > 100 | 23 | > 100
4 | COc1cc2c3c(n1)C(c1ccccc1)=N[C@@H](NC(=O)c1cccnc1)C(=O)N3CC2 | 14 | 6.1 | 12
5 | COc1cc2c3c(c1)C(c1ccccc1)=N[C@@H](NC(=O)c1ccncc1)C(=O)N3CC2 | 16 |  | 
6 | COc1cc2c3c(n1)C(c1ccccc1)=NC(NC(=O)c1cccnc1)C(=O)N3CC2 (single isomer, unassigned) | 28 | 73 | > 100
7 | COc1cc2c3c(n1)C(c1ccccc1)=NC(NC(=O)c1cccnc1)C(=O)N3CC2 (stereo in doubt) | 5.8 | 4.3 | 31
